A short description of data set [1]: Intramuscular study in minipig for prodrugs, epinephrine pharmacokinetic profile. The data set is classed as in vivo, male Yucatan miniature swine. The note with it: epinephrine in plasma, IM 2 mg/animal. The procedure:
Yucatan minipigs (n=4 males per group) were weighed and weights were recorded. The morning of the study, the vascular access port (VAP) of each animal was checked for proper functioning. Minipigs with viable VAP were removed from the home cage and placed in a holding sling. The animals were fasted overnight prior to dose administration and for the duration of PK blood collections.
All the formulations were prepared fresh on the day of dosing and maintained on wet ice until dosing. The dose was injected in the rear hind limb. Prior to administering, the plunger of the syringe was aspirated and observed for any blood that may flow into the syringe. If no blood was observed, it was verified that the needle was in proper placement, and the test articles were administered.
At each specified time-point, 6 mL of whole blood was collected into blood collection tubes containing K2EDTA as the anticoagulant and sodium metabisulfite as stabilizer. Sodium metabisulfite was at a concentration of 8.9 mM, pH 3 (60 μL/6 mL of whole blood of the 890 mM stock solution). SigmaFast (600 μL of SigmaFast 1× solution to 6 mL of whole blood) was added immediately to the tubes as the enzyme arresting agent. The tubes were inverted several times for mixing upon addition of SigmaFast solution. […] The resulting plasma was obtained and stored at approximately […]. The analysis of epinephrine was done using LC-MS/MS method.
Applicants sought to identify epinephrine prodrugs with higher permeability and slower hydrolysis after intramuscular (IM) administrations. […] Yucatan minipigs were weighed and in the morning of the study, the vascular access port (VAP) of each animal was checked for proper functioning. Minipigs with viable VAP were removed from the home cage and placed in a holding sling. The animals were fasted overnight prior to dose administration and for the duration of PK blood collections.
The dose was injected in the rear hind limb. […] At each specified time-point, 6 mL of whole blood was collected into blood collection tubes containing anticoagulant and stabilizer. Protease inhibitor cocktail was added and the tubes were inverted several times for mixing. All blood samples were centrifuged and the resulting plasma was analyzed for epinephrine using LC-MS/MS method.

The nature of data set [2]: In vitro human whole blood hydrolysis assay. The note with it: for hydrolysis in human whole blood compared to L-Dipivefrin: 1 μM, 37° C., up to 6 hours, epinephrine in plasma by LC-MS/MS.
Protocol: Fresh healthy human whole blood was collected in blood collection tubes and preincubated for 30 min at 37° C.
Using human whole blood in vitro, epinephrine levels in plasma was measured. Whole blood was collected from 2 donors. Compounds were incubated at 1 μM conc with Stabilizer. Plasma was separated after stopping the enzyme reaction at different timepoints. Samples were extracted and analyzed by LC-MS method.
Data set [3] in a line: Ex vivo permeation study, Franz diffusion cell. The class given is in vitro ADME, porcine. The note with it: for permeation: ex vivo, compared to L-Dipivefrin. The procedure:
The Franz diffusion cell apparatus consists of two chambers separated by a membrane. The permeation studies were conducted using porcine buccal mucosa obtained from a slaughterhouse. The tissues were dermatomed to typically […] and mounted in vertical Franz diffusion cells maintained at 37° C. The tissue membrane separates the donor compartment containing the drug mixed with the permeation enhancer solution and the receptor compartment containing the collection media whish was selected to provide sink conditions throughout the experiment. The permeation rate was observed over several hours by analysing drug concentration in the receptor medium.
In one example, a permeation procedure is conducted as follows. A temperature bath is set to 37° C., and receiver media is placed in a water bath to adjust the temperature and begin degassing. A Franz diffusion cell is obtained and prepared. The Franz diffusion cell includes a donor compound, a donor chamber, a membrane, sampling port, receptor chamber, stir bar, and a heater/circulator. A stir bar is inserted into a Franz diffusion cell. Tissue is placed over the Franz diffusion cell, and it is ensured that the tissue covers the entire area with an overlap onto a glass joint. The top of a diffusion cell is placed over the tissue, and the top of the cell is clamped to the bottom. About 5 mL of receptor media is loaded into the receiver area to ensure that no air bubbles are trapped in the received portion of the cell. This ensures that all 5 mL can fit into the receiver area. Stirring is begun, and temperature is allowed to equilibrate for about 20 minutes. Meanwhile, High Performance Liquid Chromatography (HPLC) vials are labelled by cell number and time point. One must then check again for air bubbles as the solution will degas during heating.
If testing films, one can perform the following next steps: (1) weigh films, punch to match diffusion area (or smaller), reweigh, record pre- and post-punching weight; (2) wet a donor area with approximately 100 μL of phosphate buffer; (3) place film on a donor surface, top with 400 μL of phosphate buffer, and start timers.
For solution studies, one can perform the following steps: (1) using a micropipette, dispense 500 μL of the solution into each donor cell, start the timers; (2) sample 200 μL at the following time points (time=0 min, 20 min, 40 min, 60 min, 120 min, 180 min, 240 min, 300 min, 360 min), and place in labelled HPLC vials, ensure no air is trapped in the bottom of the vial by tapping the closed vials; (3) replace each sample time with 200 uL of receptor media (to maintain 5 mL); (4) When all time points completed, disassemble the cells and dispose of all materials properly.
1. Tissue is freshly excised and shipped (e.g. overnight) at 4° C. 2. The tissue is processed and frozen at −20° C. for up to three weeks prior to use. 3. The tissue is dermatomed to precise thickness. 4. Approximately 5 mL of receiving media is added to the receiving compartment. The media is selected to ensure sink conditions. 5. The tissue is placed in a Franz diffusion cell, which includes a donor compound, a donor chamber, a membrane, sampling port, receptor chamber, stir bar, and a heater/circulator. 6. Approximately 0.5 mL of donor solution is applied or 8 mm circular film and wetted with 500 μL PBS buffer. 7. Samples are taken from the receiving chamber at given intervals and replaced with fresh media.

Data set [4] can be described thus: Hydrolysis testing after IV exposure, PK parameters. The data set is classed as in vivo. The protocol: Hydrolysis was analyzed after intravenous (IV) administrations. All Groups were tested at the following time intervals: 0 (predose), 2, 5, 10, 12, 15, 17, 20, 25, 30, 40, 60, 90 and 120 minutes and 3 hr, 4 hr, 6 hr and 8 hr post dose.
The nature of data set [5]: Effect of sodium fluoride on drug absorption. The note with it: relative to compositions that did not include NaF. From the text: Referring to FIG. 17, the graph indicates the effect of sodium fluoride on drug absorption.

“Also recorded” adds a separate entry of the source.

Take `CNCC(OC(=O)C(C)(C)C)c1ccc(OC(=O)C(C)(C)C)c(OC(=O)C(C)(C)C)c1` (centres unmarked) [AQEP-01]: in data set [1], the “Cmax and AUC compared among prodrugs” value was “AQEP-04>AQEP-02>AQEP-03>AQEP-01”.
Regarding `CCC(C)(C)C(=O)Oc1ccc(C(O)CNC)cc1OC(=O)C(C)(C)CC` (centres unmarked) [AQEP-02], in data set [1], the “Cmax and AUC compared among prodrugs” value is given as “AQEP-04>AQEP-02>AQEP-03>AQEP-01”.
With `CNCC(O)c1ccc(OC(=O)N(C)C)c(OC(=O)N(C)C)c1` (centres unmarked) [AQEP-03], in data set [1], the “Cmax and AUC compared among prodrugs” value is reported as “AQEP-04>AQEP-02>AQEP-03>AQEP-01”. The “hydrolysis in human whole blood compared to L-Dipivefrin” value (from here on “hydrolysis … compared to L-Dipivefrin”) in data set [2] is on record as “minimal hydrolysis; also recorded: did not show faster hydrolysis”.
For `CNCC(O)c1ccc(OC(=O)c2ccccc2)c(OC(=O)c2ccccc2)c1` (centres unmarked) [AQEP-04], in data set [1], the “Cmax and AUC compared among prodrugs” value is “higher Cmax and AUC compared to Prodrugs 01, 02 and 03”; the “Cmax and AUC compared to L-Dipivefrin” value was “less”. Moreover, the permeation result in data set [3] is on record as “did not permeate as well; also recorded: did not permeate higher than L-Dipivefrin”. In data set [2] (1 μM in human whole blood in vitro), the “plasma levels of epinephrine converted from prodrug, compared to L-Dipivefrin” value was “Rapid conversion and higher levels of epinephrine”. Further, in data set [2], the “hydrolysis … compared to L-Dipivefrin” value was “faster hydrolysis”.
Consider `CCCC(=O)Oc1ccc(C(O)CNC)cc1OC(=O)CCC` (centres unmarked) [AQEP-05], for which the “conversion to epinephrine after IV administration compared to L-Dipivefrin” value in data set [4] is listed as “Rapid conversion”. The permeation entry in data set [3] was “effective permeation”.
Take `CC(C)OC(=O)N(C)CC(O)c1ccc(O)c(O)c1` (centres unmarked) [AQEP-06]: the “hydrolysis … compared to L-Dipivefrin” value in data set [2] is “did not show any hydrolysis; also recorded: did not show faster hydrolysis”.
For `CN(CC(O)c1ccc(O)c(O)c1)C(=O)OC(C)(C)C` (centres unmarked) [AQEP-07], the “hydrolysis … compared to L-Dipivefrin” value in data set [2] is given as “did not show any hydrolysis; also recorded: did not show faster hydrolysis”.
Consider `CCCCC(=O)Oc1ccc(C(O)CNC)cc1OC(=O)CCCC` (centres unmarked) [AQEP-08], for which the permeation entry in data set [3] is “effective permeation”. Besides, the “hydrolysis … compared to L-Dipivefrin” value in data set [2] is on record as “faster hydrolysis”.
With `CNCC(O)c1ccc(OC(=O)C(C)C)c(OC(=O)C(C)C)c1` (centres unmarked) [AQEP-09], the “absorption with addition of NaF to the formulation” value in data set [5] is “increased the absorption”. Besides, the permeation result in data set [3] is recorded as “effective permeation”. For the same compound, in data set [3] (formulations containing pullulan, compared to L-dipivefrin), the “ex vivo permeation of film formulations with varying polysaccharide content” value is listed as “Higher permeation”. For the same compound, in data set [2], the “hydrolysis … compared to L-Dipivefrin” value is “faster hydrolysis”.
Regarding `CCC(=O)Oc1ccc(C(O)CNC)cc1OC(=O)CC` (centres unmarked) [AQEP-10], the permeation entry in data set [3] is recorded as “effective permeation”.
As to `CCCCCC(=O)Oc1ccc(C(O)CNC)cc1OC(=O)CCCCC` (centres unmarked) [AQEP-11], the “permeation (flux vs. carbon chain length)” value in data set [3] (5 carbon straight chain) is “permeation dropped”. For the same compound, the “hydrolysis … compared to L-Dipivefrin” value in data set [2] is listed as “faster hydrolysis”.
For the compound `CCOC(=O)Oc1ccc(C(O)CNC)cc1OC(=O)OCC` (centres unmarked) [AQEP-12], in data set [2], the “hydrolysis … compared to L-Dipivefrin” value is recorded as “faster hydrolysis”.

The values are drawn from patent US20210128511A1, “PRODRUG COMPOSITIONS AND METHODS OF TREATMENT” (AQUESTIVE THERAPEUTICS, INC., priority 2019, published 2021).
